Data as given in BindingDB's records for doi:10.1021/jm701049p (Seoul National University, 2008).

Target: Transient receptor potential cation channel subfamily V member 1 (Rattus norvegicus, UniProt O35433)
Test: Competition Binding Assay and Inhibition of Ca2+ Uptake Assay
Details: pH 7.4, 37 °C
Procedure: Binding assay mixtures were set up and contained [3H] RTX, various concentrations of competing ligands, and rVR1-transfected CHO cells. Nonspecific binding was determined in the presence of 100 nM nonradioactive RTX. After the binding reaction, membrane-bound RTX was separated from the free by centrifugation, and the radioactivity was determined by scintillation counting. Equilibrium binding parameters (Ki, Bmax, and cooperativity) were determined by fitting the Hill equation to the measured values with the aid of the program Origin 6.0.

Sequence of Transient receptor potential cation channel subfamily V member 1 (O35433 whole entry): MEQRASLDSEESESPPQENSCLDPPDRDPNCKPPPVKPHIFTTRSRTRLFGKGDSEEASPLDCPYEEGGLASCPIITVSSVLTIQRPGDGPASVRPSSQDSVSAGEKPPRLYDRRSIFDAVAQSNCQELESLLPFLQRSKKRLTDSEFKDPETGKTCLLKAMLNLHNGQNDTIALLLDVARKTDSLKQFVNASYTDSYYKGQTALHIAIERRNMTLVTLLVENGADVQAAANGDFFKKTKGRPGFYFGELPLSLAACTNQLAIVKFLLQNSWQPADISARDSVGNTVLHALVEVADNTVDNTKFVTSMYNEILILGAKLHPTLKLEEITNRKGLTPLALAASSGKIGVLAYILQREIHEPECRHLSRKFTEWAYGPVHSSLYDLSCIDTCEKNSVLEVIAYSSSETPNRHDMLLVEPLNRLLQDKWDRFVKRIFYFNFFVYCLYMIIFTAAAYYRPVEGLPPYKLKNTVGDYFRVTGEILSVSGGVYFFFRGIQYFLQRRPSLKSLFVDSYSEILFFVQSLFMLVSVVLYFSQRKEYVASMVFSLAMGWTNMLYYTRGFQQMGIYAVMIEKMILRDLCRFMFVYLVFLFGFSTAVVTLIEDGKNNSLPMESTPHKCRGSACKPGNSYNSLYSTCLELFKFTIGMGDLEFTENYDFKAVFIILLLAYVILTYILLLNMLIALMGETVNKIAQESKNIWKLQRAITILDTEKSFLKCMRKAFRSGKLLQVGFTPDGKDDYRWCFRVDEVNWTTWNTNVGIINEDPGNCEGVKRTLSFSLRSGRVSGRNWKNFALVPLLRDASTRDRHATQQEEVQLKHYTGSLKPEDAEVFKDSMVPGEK

| Compound | Ki [nM] | Ki (read-out: Ki) [nM] |
| --- | --- | --- |
| Cc1ccc(CC(CNC(=O)C(C)c2ccc(NS(C)(=O)=O)cc2)COC(=O)C(C)(C)C)cc1C (stereo not drawn) [2-[(3,4-dimethylphenyl)methyl]-3-[2-(4-methanesulfonamidophenyl)propanamido]propyl 2,2-dimethylpropanoate] | 38 | – |
| C[C@@H](C(=O)NC[C@H](COC(=O)C(C)(C)C)Cc1ccc(C(C)(C)C)cc1)c1ccc(NS(C)(=O)=O)c(F)c1 [(2R)-2-[(4-tert-butylphenyl)methyl]-3-[(2R)-2-(3-fluoro-4-methanesulfonamidophenyl)propanamido]propyl 2,2-dimethylpropanoate] | 30.3 | – |
| Cc1ccc(CC(CNC(=O)C2(c3ccc(NS(C)(=O)=O)c(F)c3)CC2)COC(=O)C(C)(C)C)cc1C (stereo not drawn) [2-[(3,4-dimethylphenyl)methyl]-3-{[1-(3-fluoro-4-methanesulfonamidophenyl)cyclopropyl]formamido}propyl 2,2-dimethylpropanoate] | 567 | – |
| Cc1ccc(CC(CNC(=O)C(C)(C)c2ccc(NS(C)(=O)=O)c(F)c2)COC(=O)C(C)(C)C)cc1C (stereo not drawn) [2-[(3,4-dimethylphenyl)methyl]-3-[2-(3-fluoro-4-methanesulfonamidophenyl)-2-methylpropanamido]propyl 2,2-dimethylpropanoate] | 65 | – |
| CC(C)(C)C(=O)OCC(CNC(=S)NCc1ccc(NS(C)(=O)=O)c(F)c1)Cc1ccc(C(C)(C)C)cc1 (stereo not drawn) | 52 | – |
| COc1cc(C(C)C(=O)NCC(COC(=O)C(C)(C)C)Cc2ccc(C)c(C)c2)ccc1NS(C)(=O)=O (stereo not drawn) [2-[(3,4-dimethylphenyl)methyl]-3-[2-(4-methanesulfonamido-3-methoxyphenyl)propanamido]propyl 2,2-dimethylpropanoate] | 13.6 | – |
| C[C@H](C(=O)NC[C@H](COC(=O)C(C)(C)C)Cc1ccccc1)c1ccc(NS(C)(=O)=O)c(F)c1 [(2R)-2-benzyl-3-[(2S)-2-(3-fluoro-4-methanesulfonamidophenyl)propanamido]propyl 2,2-dimethylpropanoate] | 8.56 | – |
| C[C@H](C(=O)NC[C@@H](COC(=O)C(C)(C)C)Cc1ccc(C(C)(C)C)cc1)c1ccc(NS(C)(=O)=O)c(F)c1 [(2S)-2-[(4-tert-butylphenyl)methyl]-3-[(2S)-2-(3-fluoro-4-methanesulfonamidophenyl)propanamido]propyl 2,2-dimethylpropanoate] | 10.9 | – |
| C[C@H](C(=O)NC[C@@H](COC(=O)C(C)(C)C)Cc1ccc(C(C)(C)C)cc1)c1ccc(NS(C)(=O)=O)c(Cl)c1 [(2S)-2-[(4-tert-butylphenyl)methyl]-3-[(2S)-2-(3-chloro-4-methanesulfonamidophenyl)propanamido]propyl 2,2-dimethylpropanoate] | 12.1 | – |
| C[C@@H](C(=O)NC[C@H](COC(=O)C(C)(C)C)Cc1ccccc1)c1ccc(NS(C)(=O)=O)c(F)c1 [(2R)-2-benzyl-3-[(2R)-2-(3-fluoro-4-methanesulfonamidophenyl)propanamido]propyl 2,2-dimethylpropanoate] | 98 | – |
| C[C@H](C(=O)NC[C@H](COC(=O)C(C)(C)C)Cc1ccc(C(C)(C)C)cc1)c1ccc(NS(C)(=O)=O)c(Cl)c1 [(2R)-2-[(4-tert-butylphenyl)methyl]-3-[(2S)-2-(3-chloro-4-methanesulfonamidophenyl)propanamido]propyl 2,2-dimethylpropanoate] | 5.2 | – |
| Cc1ccc(CC(CNC(=O)C(C)c2ccc(NS(C)(=O)=O)c(F)c2)COC(=O)C(C)(C)C)cc1C (stereo not drawn) [2-[(3,4-dimethylphenyl)methyl]-3-[2-(3-fluoro-4-methanesulfonamidophenyl)propanamido]propyl 2,2-dimethylpropanoate] | 10.8 | – |
| Cc1ccc(CC(CNC(=S)NCc2ccc(NS(C)(=O)=O)c(F)c2)COC(=O)C(C)(C)C)cc1C (stereo not drawn) | 7.8 | – |
| C[C@@H](C(=O)NC[C@@H](COC(=O)C(C)(C)C)Cc1ccc(C(C)(C)C)cc1)c1ccc(NS(C)(=O)=O)c(F)c1 [(2S)-2-[(4-tert-butylphenyl)methyl]-3-[(2R)-2-(3-fluoro-4-methanesulfonamidophenyl)propanamido]propyl 2,2-dimethylpropanoate] | 142 | – |
| C=C(C)[C@]12C[C@@H](C)[C@@]34OC(Cc5ccccc5)(O[C@@H]1[C@@H]3C=C(COC(=O)Cc1cc(I)c(O)c(OC)c1)C[C@]1(O)C(=O)C(C)=C[C@@H]41)O2 [[(1R,2R,6R,10S,11R,15R,17R)-13-benzyl-6-hydroxy-4,17-dimethyl-5-oxo-15-(prop-1-en-2-yl)-12,14,18-trioxapentacyclo[11.4.1.0^{1,10}.0^{2,6}.0^{11,15}]octadeca-3,8-dien-8-yl]methyl 2-(4-hydroxy-3-iodo-5-methoxyphenyl)acetate] | 12.2 | 0.61 |
| COc1cc(C2(C(=O)NCC(COC(=O)C(C)(C)C)Cc3ccc(C)c(C)c3)CC2)ccc1NS(C)(=O)=O (stereo not drawn) [2-[(3,4-dimethylphenyl)methyl]-3-{[1-(4-methanesulfonamido-3-methoxyphenyl)cyclopropyl]formamido}propyl 2,2-dimethylpropanoate] | 118 | – |
| Cc1ccc(CC(CNC(=O)C(C)c2ccc(NS(C)(=O)=O)c(Cl)c2)COC(=O)C(C)(C)C)cc1C (stereo not drawn) [3-[2-(3-chloro-4-methanesulfonamidophenyl)propanamido]-2-[(3,4-dimethylphenyl)methyl]propyl 2,2-dimethylpropanoate] | 36 | – |
| CC(C(=O)NCC(COC(=O)C(C)(C)C)Cc1ccc(C(C)(C)C)cc1)c1ccc(NS(C)(=O)=O)c(F)c1 (stereo not drawn) [diastereomeric mixture] | 3.24 | – |
| C[C@H](C(=O)NC[C@H](COC(=O)C(C)(C)C)Cc1ccc(C(C)(C)C)cc1)c1ccc(NS(C)(=O)=O)c(F)c1 [(2R)-2-[(4-tert-butylphenyl)methyl]-3-[(2S)-2-(3-fluoro-4-methanesulfonamidophenyl)propanamido]propyl 2,2-dimethylpropanoate] | 0.58 | – |
| Cc1ccc(CC(CNC(=O)C2(c3ccc(NS(C)(=O)=O)cc3)CC2)COC(=O)C(C)(C)C)cc1C (stereo not drawn) [2-[(3,4-dimethylphenyl)methyl]-3-{[1-(4-methanesulfonamidophenyl)cyclopropyl]formamido}propyl 2,2-dimethylpropanoate] | 197 | – |
| C[C@@H](C(=O)NC[C@@H](COC(=O)C(C)(C)C)Cc1ccccc1)c1ccc(NS(C)(=O)=O)c(F)c1 [(2S)-2-benzyl-3-[(2R)-2-(3-fluoro-4-methanesulfonamidophenyl)propanamido]propyl 2,2-dimethylpropanoate] | 205 | – |
| COc1cc(C(C)(C)C(=O)NCC(COC(=O)C(C)(C)C)Cc2ccc(C)c(C)c2)ccc1NS(C)(=O)=O (stereo not drawn) [2-[(3,4-dimethylphenyl)methyl]-3-[2-(4-methanesulfonamido-3-methoxyphenyl)-2-methylpropanamido]propyl 2,2-dimethylpropanoate] | 133 | – |
| CC(C(=O)NCC(COC(=O)C(C)(C)C)Cc1ccc(C(C)(C)C)cc1)c1ccc(NS(C)(=O)=O)c(Cl)c1 (stereo not drawn) [2-[(4-tert-butylphenyl)methyl]-3-[2-(3-chloro-4-methanesulfonamidophenyl)propanamido]propyl 2,2-dimethylpropanoate] | 12.3 | – |
| CC(C(=O)NCC(COC(=O)C(C)(C)C)Cc1ccc(C(C)(C)C)cc1)c1ccc(NS(C)(=O)=O)cc1 (stereo not drawn) [2-[(4-tert-butylphenyl)methyl]-3-[2-(4-methanesulfonamidophenyl)propanamido]propyl 2,2-dimethylpropanoate] | 52 | – |
| C[C@H](C(=O)NC[C@@H](COC(=O)C(C)(C)C)Cc1ccccc1)c1ccc(NS(C)(=O)=O)c(F)c1 [(2S)-2-benzyl-3-[(2S)-2-(3-fluoro-4-methanesulfonamidophenyl)propanamido]propyl 2,2-dimethylpropanoate] | 10 | – |
| CC(C)(C)C(=O)OCC(CNC(=O)Cc1ccc(NS(C)(=O)=O)c(F)c1)Cc1ccc(C(C)(C)C)cc1 (stereo not drawn) | 440 | – |
| Cc1ccc(CC(CNC(=O)C(C)(C)c2ccc(NS(C)(=O)=O)cc2)COC(=O)C(C)(C)C)cc1C (stereo not drawn) [2-[(3,4-dimethylphenyl)methyl]-3-[2-(4-methanesulfonamidophenyl)-2-methylpropanamido]propyl 2,2-dimethylpropanoate] | 104 | – |
